Results as given in ChEMBL document CHEMBL5543136, “Discovery of Novel Heterotricyclic Compounds as DNA-Dependent Protein Kinase (DNA-PK) Inhibitors with Enhanced Chemosensitivity, Oral Bioavailability, and the Ability to Potentiate Cancer Immunotherapy” (J Med Chem, 2024).
pIC50: −log10 of the molar value. Calls of active or inactive are those of the source. No cut-off for these calls is given here.

Key:
[1] = Selectivity ratio of IC50 for antiproliferative activity against human Jurkat cells to IC50 for synergistic antiproliferative activity against human Jurkat cells in presence of doxorubicin; type: functional
[2] = Half-life in male Sprague-Dawley rat at 10 mg/kg, po measured after 48 hrs by LC-MS/MS analysis; type: ADME, organism-based; details: in vivo
[3] = Clearance in male Sprague-Dawley rat at 2 mg/kg, iv measured after 48 hrs by LC-MS/MS analysis; type: ADME, organism-based; details: in vivo
[4] = Clearance in male Sprague-Dawley rat at 10 mg/kg, po measured after 48 hrs by LC-MS/MS analysis; type: ADME, organism-based; details: in vivo
[5] = Toxicity in BALB/c mouse implanted with mouse CT26 cells assessed as weight loss at 10 mg/kg, ip QD co-administered with doxorubicin for 21 days; type: organism-based; details: in vivo, 504 h, time 21 day
[6] = Half-life in male Sprague-Dawley rat at 2 mg/kg, iv measured after 48 hrs by LC-MS/MS analysis; type: ADME, organism-based; details: in vivo
Jurkat [7] = assay: Induction of cell cycle arrest in human Jurkat cells assessed as decrease in S phase cells at 1 uM incubated for 24 hrs in presence of doxorubicin by PI staining based flow cytometric analysis; type: functional
[8] = AUC (0 to t) in male Sprague-Dawley rat at 2 mg/kg, iv measured after 48 hrs by LC-MS/MS analysis; type: ADME, organism-based; details: in vivo
[9] = Toxicity in C57BL/6 mouse implanted with mouse B16-F10 cells assessed as change in lung histopathology at 10 mg/kg, ip administered once daily for 13 days by H&E staining based analysis; type: organism-based; details: in vivo, 312 h, time 13 day
Jurkat [10] = assay: Synergistic antiproliferative activity against human Jurkat cells assessed as reduction in cell viability incubated for 48 hrs in presence of doxorubicin by CCK-8 assay; type: functional, cell-based
Jurkat [11] = assay: Inhibition of DNA damage repair in human Jurkat cells assessed as reduction in gammaH2AX expression level by Western blot analysis; type: functional, cell-based; details: dose 0.1-5 µM
[12] = AUC (0 to infinity) in male Sprague-Dawley rat at 10 mg/kg, po measured after 48 hrs by LC-MS/MS analysis; type: ADME, organism-based; details: in vivo
B16-F10 [13] = assay: Antitumor activity against mouse B16-F10 cells implanted in C57BL/6 mouse assessed as tumor growth inhibition at 10 mg/kg, ip QD co-administered with PD-L1 antibody for 13 days relative to control; type: functional; details: B16-F10, 312 h, time 13 day, read-out: TGI
B16-F10 [14] = assay: Immunomodulatory activity in mouse B16-F10 cells implanted in C57BL/6 mouse assessed as percentage of CD3 positive CD8 positive cells in tumor at 10 mg/kg, ip QD co-administered with SWS1 for 13 days by flow cytometric analysis (reference value: 0.99%); type: functional; details: time 13 day
[15] = Toxicity in C57BL/6 mouse implanted with mouse B16-F10 cells assessed as change in kidney histopathology at 10 mg/kg, ip administered once daily for 13 days by H&E staining based analysis; type: organism-based; details: in vivo, 312 h, time 13 day
B16-F10 [16] = assay: Immunomodulatory activity in mouse B16-F10 cells implanted in C57BL/6 mouse assessed as percentage of CD3 positive CD8 positive cells in tumor at 10 mg/kg, ip administered once daily for 13 days by flow cytometric analysis (reference value: 0.99%); type: functional; details: time 13 day
[17] = Apparent volume of distribution in male Sprague-Dawley rat at 10 mg/kg, po measured after 48 hrs by LC-MS/MS analysis; type: ADME, organism-based; details: in vivo
[18] = Toxicity in C57BL/6 mouse implanted with mouse B16-F10 cells assessed as effect on body weight at 10 mg/kg, ip administered once daily for 13 days; type: organism-based; details: in vivo, 312 h, time 13 day
B16-F10 [19] = assay: Antitumor activity against mouse B16-F10 cells implanted in C57BL/6 mouse assessed as tumor growth inhibition at 10 mg/kg, ip administered once daily for 13 days relative to control; type: functional; details: B16-F10, 312 h, time 13 day, read-out: TGI
CT26 = assay: Antitumor activity against mouse CT26 cells implanted in BALB/c mouse assessed as reduction in tumor volume by measuring tumor growth inhibition at 10 mg/kg, ip QD co-administered with doxorubicin for 21 days relative to control; type: functional; details: CT26, 504 h, time 21 day, read-out: TGI

With `Cc1cc2cccnc2cc1Nc1ncc2c(n1)N(C1CCOCC1)Cc1nncn1-2` the “Ratio IC50” value [1] was 30, the half-life [2] was 2 h and the clearance [3] was 55 mL/min/kg. For the same compound, the CL/F [4] was 210 mL/min/kg, the Activity [5] was “Non-Toxic” and the half-life [6] was 1 h. The Activity (Jurkat [7]) was “Active”, the AUC(0-t) at 48 h [8] was 604 ng·h/mL and the Activity [9] was “Non-Toxic”. For the same compound, the pIC50 (Jurkat [10]) was 7.70, the inhibition (Jurkat [11]) was “Dose-Dependent Effect” and the AUC(0-inf) [12] was 962 ng·h/mL. For the same compound, the inhibition in vivo at 10 mg/kg (B16-F10 [13]) was 60.5%, the Activity (B16-F10 [14]) was 5.17% and the Activity [15] was “Non-Toxic”. The Activity (B16-F10 [16]) was 1.12%, the Vz [17] was 38.8 L/kg and the Activity [18] was “Non-Toxic”. For the same compound, the inhibition in vivo at 10 mg/kg (B16-F10 [19]) was 35.9% and the inhibition in vivo at 10 mg/kg (CT26) was 59.5%.
